Measured values as given in US5594009A, “Fused pyrrolocarbazoles” (priority 1995, dated 1997).

Key:
[1] = tested on: indoleamine 2,3-dioxygenase (IDO) mRNA in THP-1 cells; test: Inhibition of Induction By IFNγ of IDO mRNA; format: cell-based; conditions: Homo sapiens, IDO/GAPD mRNA ratio, 48 hours, read-out: IDO mRNA, Phosphorimager units, % of IFNγ-treated cells; for mrna remaining at 0.4 µM: compound 400 nM, IFNγ 400 units/ml
Procedure: Fused pyrrolocarbazoles in accordance with our invention were tested for their ability to inhibit the induction by IFNγ of indoleamine 2,3-dioxygenase (IDO) mRNA in THP-1 cells, a human monocyte cell line.
Cell Culture: THP-1 cells (American Type Culture Collection, Rockville, Md.), a human monocytic leukemia cell line, were grown in RPMI 1640 medium (Mediatech, Herndon Valley, Va.) with 50 μM 2-mercaptoethanol and 10% fetal bovine serum. Cells were plated in T75 culture flasks, at 4×10^4 cells/cm^2 in 10 ml of medium, and were immediately treated with fused pyrrolocarbazoles at various concentrations. After 30 minutes recombinant (E. coli) IFNγ (Boehringer Mannheim Corporation,Indianapolis, Ind.) was added at 200-400 units/ml. Cells were incubated (37° C., 5% CO2 /95% Air) for 48 hours after treatment.
RNA Isolation: Cells were pelleted by centrifugation (50× g, 7 min.) and medium was decanted. The cells were then washed two times with phosphate buffered saline pH 7.2 (PBS) (Mediatech, Herndon Valley, Va.). The washed cell pellet was lysed in 2 ml RNAzol B (Tel-Test, Inc., Friendswood, Tex.). RNA was isolated by chloroform extraction, precipitated, and washed following the "RNAzol B isolation of RNA" protocol accompanying this product. RNA was then solubilized in H2 O, and the concentration and purity were determined by reading the absorbance at A260 nm and A280 nm. Finally, the RNA was reprecipitated in ethanol, overnight at -20° C.
cDNA Probes: Indoleamine 2,3-dioxygenase (IDO) cDNA was received from Sohan L. Gupta, Ph. D. (Hipple Cancer Research Center, Dayton, Ohio) (see Da., W. & Gupta, S. L. 168 Biochem. Biophys. Res. Commun. 1, 1990 and Hassanain, H. H. et al. 268 J. Biol. Chem. 5077, 1993). Glyceraldehyde-3-phosphate dehydrogenase (GAPD) cDNA was obtained through American Type Culture Collection (Rockville, Md.). These cDNA's were produced and purified using standard methods (see, Sambrook, Fritsch, Maniatis (1989) Molecular Cloning a Laboratory Manual/Second Edition 1, 1.21-1.24, 1.74-1.81, hereinafter in this Example, "Maniatis a") using Qiagen plasmid purification kits (Qiagen Inc., Chatsworth, Calif.). DNA concentration and purity were determined by absorbance at 280 nm and 260 nm. Specific DNA inserts were cut out by standard methods using restriction enzymes, and subsequently separated on agarose gels as in Maniatis (see, Sambrook, Fritsch, Maniatis (1989) Molecular Cloning a Laboratory Manual/Second Edition 1, 6.9-6.15, hereinafter in this Example, "Maniatis b"). cDNA probes were further purified for [^32 P] labeling using the Geneclean II DNA purification kit (BIO 101, Inc., La Jolla, Calif.). Probes were labeled with dCTP-α-^32 P (Amersham Corp., Arlington Heights, Ill.) by random primer labeling, using the Prime-a-GeneLabeling System (Promega Corp., Madison, Wis.).
Analysis and quantification of mRNA: IDO mRNA was detected by Northern blot analysis (see Maniatis a, p. 7.39-7.51) using standard methods. […] Quantification of IDO mRNA was carried out using a phosphorimager (Molecular Dynamics) in which density (i.e., amount of RNA) is expressed as relative phosphorimager units. […] GAPD mRNA measurement by phosphorimager quantification of Northern blots serves as a means to normalize for potential sample to sample differences in the amount of total RNA loaded on gels. […]

[2] = tested on: choline acetyltransferase (ChAT) activity in dissociated rat embryonic spinal cord culture; test: Spinal Cord ChAT Activity Assay; format: cell-based; conditions: ChAT measured after 48 hours
Procedure: In these assays, a fused pyrrolocarbazole was directly added to a dissociated spinal cord culture. […] The fused pyrrolocarbazole was added on the same day the dissociated spinal cord cell culture was initiated.
Methods: Fetal rat spinal cord cells were dissociated, and experiments were performed as described (Smith et al., J. Cell Biology., 101:1608-1621 (1985); Glicksman et al., J. Neurochem. 61:210-221 (1993)). Dissociated cells were prepared from spinal cords dissected from rats (embryonic day 14-15) by standard trypsin dissociation techniques (Smith et al., J. Cell Biology 10:1608-1621 (1985)). Cells were plated at 6×10^5 cells/cm^2 on poly-1-ornithine coated plastic tissue culture wells in serum-free N2 medium supplemented with 0.05% bovine serum albumin (BSA) (Bottenstein et al., PNAS USA 514-517 (1979)). Cultures were incubated at 37° C. in a humidified atmosphere of 5% CO2 /95% air for 48 hours. ChAT activity was measured after 2 days it vitro using a modification of the Fonnum procedure (Fonnum, J. Neurochem. 24:407-409 (1975)) according to McManaman et al. and Glicksman et al. (McManaman et al., Developmental Biology 125:311-320 (1988); Glicksman et al., J. Neurochem. 61:210-221 (1993)).

protein kinase C = test: PKC Activity Inhibition Assay; format: biochemical
Procedure: Fused pyrrolocarbazoles inhibited the activity of protein kinase C (Table VI). The protein kinase C assay has been disclosed (Murakata et al., U.S. Pat. No. 4,923,986; Kikkawa et al., J. Biol. Chem. 257:13341-13348 (1982)). The assay was performed with several concentrations of fused pyrrolocarbazoles. The concentration at which protein kinase C was 50% inhibited (IC50) was determined.

[3] = tested on: ChAT activity of basal forebrain cultures; test: Basal Forebrain ChAT Activity Assay; format: cell-based, rat; conditions: Rattus norvegicus, 120 h, read-out: ChAT Activity (% of Control)
Summary of the method: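 Basal forebrain neurons from E17–18 rat embryos were Dispase-dissociated and plated at 5×10^4 cells/well on poly-ornithine/laminin. Cultures were kept in serum-free N2 medium with 0.05% BSA at 37° C. ChAT activity was measured 5 days after plating as the read-out for compound-induced increase.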

AT-2 cells = test: Inhibition of Growth of Prostate Cancer Cell Line (MTS assay); format: cell-based; conditions: 72 h; 3 days, MTS; read-out: AT-2 cell growth IC50
Procedure: AT-2 cells are a prostate cancer cell sub-line derived from the Dunning H tumor, graciously provided to us by Dr. John Isaacs (John Hopkins, M. D.). Unlike the Dunning H tumor cells, AT-2 cells can be grown in vitro.
Methods: At-2 cells ([…]) were plated on tissue culture plastic in 96-well plates in the presence of RPMI-1640 medium containing 10% fetal calf serum, 250 nM dexamethasone, 2 mM glutamine, 1 mM sodium pyruvate, and penicillin/streptomycin antibiotics. The next day, compounds were added at 4 concentrations (10, 1, 0.1, 0.01 μM) to determine the approximate IC50 range. Cultures were assayed 3 days later for cell number using the MTS [(3-(4,5-dimethylthiazol-2-yl)-5-(3-carboxymethoxyphenyl)-2-(4-sulfophenyl)-2H-tetrazolium, inner salt)] assay. The MTS assay (purchased as a kit from Promega) measures the formation of an aqueous soluble formazan (detected by a plate reader at 490nm) produced by the bioreduction of a tetrazolium compound (MTS) in metabolically active cells via mitochondrial succinate dehydrogenase. After determining linearity of the substrate incubation time over a range of cell plating densities, the amount of product measured is directly proportional to cell number. MTS (333 ug/ml) and 25 μM phenazine methosulfate are mixed and added directly to the culture medium, and incubated at 37° C. in the 5% CO2 /95% air incubator for 0.5-4 h. Absorbance of the product at 490 nm is read on the BIO-TEK plate reader. Background values were obtained from wells containing culture medium with substrate solution, but no cells. In addition, values were also obtained from wells containing cells plated at day 0 and assayed on the day compound was added (day 1) in order to determine the number of cells at the time compound was added. After the initial dose-finding experiment was completed, subsequent experiments were set up so that there were 3 or more concentrations near the predicted IC50.

trkA tyrosine kinase = trkA tyrosine kinase (Homo sapiens, UniProt P04629); test: trkA Tyrosine Kinase Activity Inhibition Assay (ELISA); format: biochemical; conditions: 16 μM ATP, 37° C., 15 min; read-out: INHIBITION OF trkA KINASE IC50
trkA tyrosine kinase, sequence (P04629 33-796): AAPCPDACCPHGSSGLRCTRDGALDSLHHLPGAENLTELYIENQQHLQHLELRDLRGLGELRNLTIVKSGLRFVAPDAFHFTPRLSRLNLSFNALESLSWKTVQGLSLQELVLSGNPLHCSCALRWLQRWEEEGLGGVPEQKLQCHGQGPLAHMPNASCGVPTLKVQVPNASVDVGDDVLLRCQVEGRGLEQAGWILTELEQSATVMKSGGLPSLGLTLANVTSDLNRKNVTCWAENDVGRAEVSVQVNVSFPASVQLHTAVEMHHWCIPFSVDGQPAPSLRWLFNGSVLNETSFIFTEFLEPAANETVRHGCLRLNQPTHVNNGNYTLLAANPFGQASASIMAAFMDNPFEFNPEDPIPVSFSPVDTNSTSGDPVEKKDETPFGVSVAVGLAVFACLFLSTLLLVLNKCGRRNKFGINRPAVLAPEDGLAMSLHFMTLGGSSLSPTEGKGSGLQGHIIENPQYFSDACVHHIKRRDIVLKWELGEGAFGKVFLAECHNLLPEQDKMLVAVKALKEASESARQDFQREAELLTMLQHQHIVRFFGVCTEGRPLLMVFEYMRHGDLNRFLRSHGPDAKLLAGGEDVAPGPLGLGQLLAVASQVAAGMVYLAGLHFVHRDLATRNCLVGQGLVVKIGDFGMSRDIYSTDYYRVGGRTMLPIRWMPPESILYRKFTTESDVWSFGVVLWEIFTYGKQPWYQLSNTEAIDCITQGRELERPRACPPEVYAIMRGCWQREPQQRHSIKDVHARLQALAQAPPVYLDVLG
Procedure: These compounds were then tested for the ability to inhibit substrate phosphorylation by the trkA tyrosine kinase.
Plates were washed three times with TBST, followed by two washes with TBS (TBST sans Tween-20). Fused pyrrolocarbazoles were then added at various concentrations to a reaction mixture (50 mM HEPES, pH 7.4, 5 mM MnCl2, 5 mM MgCl2, 140 mM NaCl, 16 μM ATP, and 15 ng trkA in a total volume of 1001 μL.). As a negative control, 100 mM EDTA was included in the reaction solution. The plates were then incubated at 37° C. for 15 min. The detection antibody, monoclonal anti-phosphotyrosine antibody (UBI), was added at a dilution of 1:2000 in TBST, and incubated for 1 hour at 37° C. Plates were then washed three times with TBST, followed by a 1 hour incubation at 37° C. with alkaline phosphatase-labeled goat anti-mouse IgG (1:2000 in TBST (Bio-Rad)). After washing three times with TBST followed by two washes with TBS, a colored product was produced by using NADPH as substrate for alkaline phosphatase, and the coupled reactions of diaphorase and alcohol dehydrogenase (GIBCO-BRL ELISA amplification system). The colored product was read at 490 nm in a microplate reader (Biotek).

[4] = tested on: lumbar motoneurons of chick embryos; test: Inhibition of Motoneuron Death In Ovo; format: in vivo; conditions: for Number of motoneurons mean ± SD / % of motoneurons rescued versus control: E6-E9; for Number of motoneurons mean ± SD: one side of spinal cord
Procedure: The samples (50 ul) were applied to the vascularized chorioallantoic membrane through a window in the egg shell as previously described (Oppenheim et al., 1988). Embryos were sacrificed on E10 and spinal cords were removed, fixed in Carnoy's solution (10% acetic acid, 60% ethanol, 30% chloroform), embedded in paraffin, sectioned at 8 um, and stained with thionin as described previously (Oppenheim et al., 1988). Motoneurons (identified by morphology and position) were counted by an individual blind to the treatment conditions in every tenth section according to previously established criteria (Oppenheim et al., 1982, Oppenheim, 1986).

chick DRG neurons = test: DRG Neuron Survival Assay (calcein AM); format: cell-based; conditions: Gallus gallus, DRG neuron, 48 hours, read-out: Neuronal Survival (% of Control)
Procedure: Fused pyrrolocarbazoles promoted dorsal root ganglion (DRG) neuronal survival in cultures of chick DRG neurons. Cell survival was measured by uptake of calcein AM, an analog of the viable dye, fluorescein diacetate. Calcein is taken up by viable cells and cleaved intracellularly to fluorescent salts which are retained by intact membranes of viable cells. Microscopic counts of viable neurons correlate directly with relative fluorescence values obtained with the fluorimetric viability assay. This method thus provides a reliable and quantitive measurement of cell survival in the total cell population of a given culture (Bozyczko-Coyne et al., J. Neur. Meth. 50:205-216, 1993).
Methods: Dorsal root ganglia were dissected from embryonic age day 9 chick embryos and dissociated cells prepared by subsequent Dispase (neutral protease, Collaborative Research) dissociation. Neurons were seeded at low density (3×10^4 cells/cm^2) into 96 well poly-L-ornithine and laminin coated plates. Cells were cultured for 48 hours in serum-free N2 medium (Bottenstein and Sato, 1979) at 37° C. in a humidified atmosphere, 5% CO2 /95% air. Cell survival was assessed at 48 hours using the viable fluorimetric assay described above.

In the case of O=C1NCc2c3c(c4[nH]c5ccc(Br)cc5c4c21)Cc1ccccc1-3 [Compound I-11, 3-Bromo-6H, 7H, 12H, 13H -indeno[2,3-a]pyrrolo[3,4-carbazole-5(5H)one], the mrna remaining at 0.4 µM [1] is reported as 49%, the “Spinal Cord ChAT Activity, % of Control, untreated cultures” value (“Spinal Cord ChAT Activity, % of Control” below) [2] is reported as 188 % of Control and the IC50 (protein kinase C) is reported as 450 nM.
With O=C1NCc2c1c1c(c3c2c2ccccc2n3CCO)Cc2ccccc2-1 [Compound I-29, 13-(2-Hydroxyethyl)-5H,6H,12H,13H-indeno[2,3-a]pyrrolo[3,4-c]carbazole-7(7H)one] the mrna remaining at 0.2 µM ([1]; compound 200 nM, IFNγ 200 units/ml) was 57%, the “Spinal Cord ChAT Activity, % of Control” value [2] was 154 % of Control and the IC50 (protein kinase C) was 40 nM. The activity at 0.1 µM ([3]; 100 nM) was 140%, the activity at 0.25 µM ([3]; 250 nM) was 189% and the activity at 0.5 µM ([3]; 500 nM) was 194%. For the same compound, the activity at 1 µM ([3]; 1000 nM) was 210%, the IC50 (AT-2 cells) was 3260 nM and the IC50 (trkA tyrosine kinase) was 18.4 nM.
For O=C1NCc2c1c1c(c3[nH]c4ccc(C=Cc5ccccn5)cc4c23)Cc2ccccc2-1 [Compound I-32, 3-(2-Pyridinylethenyl)-5H,6H,12H,13H-indeno[2,3-a]pyrrolo[3,4-c]carbazole-7(7H)-one], the mrna remaining at 0.4 µM [1] was 70%, the “Number of motoneurons mean ± SD” value ([4]; 0.06 ug/egg daily) was 9657 ± 529 and the “% of motoneurons rescued versus control” value ([4]; 0.3 ug/egg daily) was 8%. The “Number of motoneurons mean ± SD” value ([4]; 0.3 ug/egg daily) was 10215 ± 481, the “% of motoneurons rescued versus control” value ([4]; 0.6 ug/egg daily) was 31% and the “Number of motoneurons mean ± SD” value ([4]; 0.6 ug/egg daily) was 12357 ± 499. The “increase in motoneuron survival in treated vs. control embryos, maximal effect” value ([4]; 0.6 ug/egg, vehicle-treated control) was 31%, the “% of motoneurons rescued versus control” value ([4]; 1.2 ug/egg daily) was 24% and the “Number of motoneurons mean ± SD” value ([4]; 1.2 ug/egg daily) was 11743 ± 1497. For the same compound, the “dose at which the maximal effect was achieved” value ([4]; daily dose) was 0.6 ug/egg, the “Spinal Cord ChAT Activity, % of Control” value [2] was 288 % of Control and the viability at 0.1 µM (chick DRG neurons; 100 nM) was 173%. For the same compound, the viability at 0.25 µM (chick DRG neurons; 250 nM) was 164%, the viability at 0.5 µM (chick DRG neurons; 500 nM) was 151% and the IC50 (trkA tyrosine kinase) was > 1000 nM.
